The nature of the test: binding affinity against sigma Opioid receptor was measured by using labeled ligand [3H]-SKF- 10,047 (1 nM).
In turn, `Oc1cccc2c1O[C@H]1CCC[C@H]3CN(CC4CC4)CC[C@@]231` [(-)-trans-3-Cyclopropylmethyl-2,3,4,4aalpha,5,6,7,7aalpha-octahydro-1H-benzo[4,5]furo[3,2-e]isoquinolin-9-ol] displayed a Ki of 21 nM.
With `O=C1CC[C@@H]2CN(CC3CC3)CC[C@@]23c2cccc(O)c2O[C@@H]13` [(4aS,7aR,12bS)-3-Cyclopropylmethyl-9-hydroxy-2,3,4,4a,5,6-hexahydro-1H-8-oxa-3-aza-benzo[d]fluoren-7-one] the figure was 310 nM.
With `Oc1cccc2c1O[C@H]1[C@@H](O)CC[C@H]3CN(CC4CC4)CC[C@@]231` [(4aR,7S,7aR,12bS)-3-Cyclopropylmethyl-2,3,4,4a,5,6,7,7a-octahydro-1H-8-oxa-3-aza-benzo[d]fluorene-7,9-diol] the figure was 580 nM; with `CN1CC[C@]23c4cccc(O)c4O[C@H]2C(=O)CC[C@H]3C1` [(4aR,7aR,12bS)-9-Hydroxy-3-methyl-2,3,4,4a,5,6-hexahydro-1H-8-oxa-3-aza-benzo[d]fluoren-7-one], 2090 nM.
With `COc1cccc2c1O[C@H]1[C@@H](O)CC[C@H]3CN(CC4CC4)CC[C@@]231` [(4aR,7S,7aR,12bS)-3-Cyclopropylmethyl-9-methoxy-2,3,4,4a,5,6,7,7a-octahydro-1H-8-oxa-3-aza-benzo[d]fluoren-7-ol] the figure was 410 nM.
`Oc1cccc2c1O[C@H]1[C@H](O)CC[C@@H]3CN(CC4CC4)CC[C@@]231` [(4aS,7R,7aR,12bS)-3-Cyclopropylmethyl-2,3,4,4a,5,6,7,7a-octahydro-1H-8-oxa-3-aza-benzo[d]fluorene-7,9-diol] gave a Ki of 300 nM.
With `COc1cccc2c1O[C@H]1C(=O)CC[C@H]3CN(CC4CC4)CC[C@@]231` [(4aR,7aR,12bS)-3-Cyclopropylmethyl-9-methoxy-2,3,4,4a,5,6-hexahydro-1H-8-oxa-3-aza-benzo[d]fluoren-7-one] the figure was 440 nM; with `O=C1CC[C@H]2CN(CC3CC3)CC[C@@]23c2cccc(O)c2O[C@@H]13` [(4aR,7aR,12bS)-3-Cyclopropylmethyl-9-hydroxy-2,3,4,4a,5,6-hexahydro-1H-8-oxa-3-aza-benzo[d]fluoren-7-one], 710 nM.
